This note sets out measurements from patent publication EP4772500A1, “NOVEL ISOXAZOLE COMPOUND AS TM4SF5-SPECIFIC INHIBITOR AND USE THEREOF” (Seoul National University R&DB Foundation, priority 2023, dated 2025).

SMILES strings stand for the structures.

One assay has as its system SNU449-TM4SF5 cells. The experiment in a line: qRT-PCR of cytokines/chemokines, fibrosis and T/NK cell related factors. The assay is classed as cell-based, human. The note with it: 2.5 µM, 24 hours, SNU449-TM4SF5 (FIG. 8e-g). Here is the method: After disrupting cells or tissues using Qiazol (Qiagen, USA), chloroform was added thereto, and centrifugation was performed at 12,000x g and 4°C for 15 minutes for phase separation, followed by separating the upper […] layer. After adding isopropanol to the separated […] layer to precipitate RNA, it was washed with 70% ethanol. An RNA pellet was separated by centrifugation at 7,500x g for 5 minutes, and ethanol was evaporated for 10 minutes, followed by solubilization in 30 µl of DEPC-water. The solubilized RNA was reverse-transcribed using a reverse transcription kit (Toyobo, Japan) after removing gDNA to obtain cDNA. For the obtained cDNA, expression was measured by real-time PCR (Bio-Rad, USA) using 2x Eva green master mix (Labopass, Republic of Korea) and 0.4 µM forward/reverse primers. The expression level was calculated using Pfaffl's modified delta-delta Ct method.
Normal 22-week-old C57BL/6 mice were randomly divided into a normal chow diet (NCD) group and a Methionine-Choline Deficient (MCD) diet group, which is a non-alcoholic steatohepatitis (NASH) induction diet, with 3 to 6 mice per group, and were allowed free access to the diets for 4 weeks. Simultaneously, vehicle (DMSO) or ST-2-001 at a concentration of 5 mg/kg was treated twice a week per animal via intraperitoneal injection (IP). […]
A general note: Real-time PCR tracks product formation cycle by cycle.

A further assay relates to SNU449-EV cells. The experiment in a line: Cell migration tracking, control cells. The format is cell-based, human. The note with it: SNU449-EV, 2.5, 5.0, or 10.0 µM, 17 hours (FIG. 7). How it is done:
SNU449-TM4SF5 cells, which were made to express TM4SF5 using a lentivirus in human hepatocellular carcinoma cells SNU449, and SNU449-EV cells, into which a control vector (empty vector, EV) was injected so that TM4SF5 is not expressed, were seeded to a density of 40% in 8-chamber plates (Thermo) coated with 10 µg/ml collagen type 1 (Advanced Biomatrix). Three hours after seeding in a cell culture environment containing 10% FBS (GenDEPOT), DMSO and drugs were treated in the culture medium at the indicated concentrations. After treating with the drugs, the positions of the same moving cells were repeatedly photographed using a microscope every 20 minutes for 17 hours. The cells were photographed using an IX81-ZDC microscope (Olympus) equipped with a UPLSAPO 10X2, NA0.4 Super Apochromatic objective lens (Olympus). While photographing the cells, a general cell culture environment was created by constantly injecting 5% CO2 at a rate of 40-60 mL/min at 37°C using a controller (Live Cell Instrument). The migration distance and path of the cells were calculated using the "Track Object" application of MetaMorph software (Molecular Devices LLC). […]

Consider `COc1ccc(-c2cc(-c3ccc(NC(C)=O)cc3)no2)cc1` [ST-2-001, N-(4-(5-(4-methoxyphenyl)isoxazole-3-yl)phenyl)acetamide], for which, in the assay on SNU449-TM4SF5 cells, the “mRNA levels of inflammation-related cytokines/chemokines, liver fibrosis factors, and factors related to T cell or NK cell natural killer activation” value was “inhibited”. Besides, the cell migration entry in the assay with SNU449-EV cells is “did not change”.
